One compound from patent US20030157208A1, “Cynomoriaceae extract and use in treating erectile dysfunction” (priority 2001, published 2003) can be followed below.

The term EC50 denotes the concentration giving half of the maximal effect.

The subject of the assay is rat corpus cavernosum tissue. Description: Relaxation of norepinephrine-precontracted isolated rat corpus cavernosum strips (organ bath). Type of assay: cell-based, Sprague-Dawley (SD) rats. How it is done:
The extracts of this invention may be tested for their activity for alleviating or preventing symptoms erectile dysfunction by techniques known in the art. The test is similar to the endothelium-dependent vasorelaxatin test reported by Fitzpatrick et al., 1995. In general, in accordance with this protocol, plant extracts are tested for endothelium-dependent relaxation (EDR) by measuring the relaxation or contraction imparted by diluted samples to an appropriate tissue sample precontacted by norepinephrine to arrive at an EDR value that is the percentage of relaxation imparted. […] Experiments were performed on male, eight to twelve week old, 278.86±6.85 g Sprague-Dawley (SD) rats. Rats were housed in an animal care facility at the College of Medicine, University of Saskatchewan. Rats were anaesthetized with sodium pentobarbital (50 mg/kg) by intraperitoneal injection. The whole penis of one rat (shown at 10 in FIG. 3A) was gently dissected out and put into a Petri dish containing ice-cold Krebs' solution. The portion of the penis used for the experiments is shown generally at 12 in FIG. 3A. The penis was cleaned and the connective tissues were removed. The section 12 was prepared for testing as a proximal section (10 mm in length) of the corpus cavernosum 18, which was cut longitudinally into two pieces and the size of each piece was about 1×1×10 mm. […] The pH of this bath solution 23 was adjusted to 7.2. The corpus cavemosum strips 19 were tied with silk threads 24 at each end with one end immobilized at 26 on the inner wall of the organ bath chamber 20, and the other hooked to a transducer 28 (FT 03, Grass Ins. Co., Quincy). […] Strips 19 were contracted with 10 μM norepinephrine. After the plateau phase of contraction had been reached, the cumulative concentration-response relationships of BuSY and BuSY608 were tested. […] As a control and comparison compound, sildenafil ([…]®) was also used to test the penile tissue response (tissues prepared as above). […]

The structures appear in SMILES notation. In brackets after ≈: the same amount, converted by molar mass.

Regarding `CCCc1nn(C)c2c(=O)[nH]c(-c3cc(S(=O)(=O)N4CCN(C)CC4)ccc3OCC)nc12` [sildenafil], it took 11.4 µg/mL (≈ 24 µM) to reach a half-maximal effect (Rattus norvegicus, strips precontracted with 10 μM norepinephrine, cumulative concentration-response, n=6) (EC50). The compound further displayed a maximal relaxation (induced by 200 μg/ml, norepinephrine-precontracted strips, n=6) of 66.7±6.1%. In addition, for the setting “norepinephrine-precontracted strips, cumulative concentration ladder”, the “concentration at which relaxation was initiated” value was 0.6 µg/mL.
